Data published in patent publication US12084473B2, “β-D-2′-deoxy-2′-α-fluoro-2′-β-C-substituted-2-modified-N6-substituted purine nucleotides for HCV treatment” (Atea Pharmaceuticals, Inc., priority 2015, dated 2024).
Read-outs that look alike come from different tables or passages of the source.

How the values were obtained:
[1] = target: HCV genotype 1b luciferase reporter replicon; test: microbe, parasite or virus in culture; assay type: cell-based; details: read-out: EC50 in a replicon assay
Protocol: (§1) The plates were cultured for 24 hours prior to the addition of compounds. Six serial one half log dilutions of the test articles (high test concentration of 100.0 μM or high test concentration of 1.0 μM) and human interferon-alpha2b (high test 10.0 U/ml) were prepared in cell culture medium and added to the cultured cells in triplicate wells for each dilution. Six wells in the test plates received medium alone as an untreated control. Following 72 hours of culture in the presence of compound, one of the plates was used for the determination of cytotoxicity by staining with XTT and the other for antiviral efficacy by determination of luciferase reporter activity. Cytotoxicity and efficacy data were collected and imported into a customized Excel workbook for determination of the TC50 and EC50 values. […] The y-axis is the percent of virus control and the x-axis is the concentration of drug in μM. […] The y-axis is the percent of virus control and the x-axis is the concentration of drug in M.

Huh-7 luc/neo ET cells = test: Cytotoxicity by XTT staining in replicon cells
Protocol: as §1

[2] = tested on: HCV Genotype 1a, NS5B Mutation L159F and S282T; test: microbe, parasite or virus in culture; assay type: cell-based; details: genotype 1a, NS5B L159F and S282T
Protocol: (§2) Various patient-derived HCV genotypes containing wild-type and resistance-associated variants were used to determine their relative replication sensitivity to test compounds. Replicon resistance test vectors (RTVs) containing the NS5B genomic regions were prepared using viral RNA isolated from plasma of HCV patients. Each NS5B region was amplified by reverse-transcription polymerase chain reaction and cloned into an HCV replicon RTV which was then transferred by electroporation into Huh-7 cells.

[3] = tested on: HCV Genotype 1a, NS5B Mutation L159F; test: microbe, parasite or virus in culture; assay type: cell-based; details: genotype 1a, NS5B L159F
Protocol: as §2

[4] = tested on: HCV Genotype 1a, NS5B Mutation none; test: microbe, parasite or virus in culture; assay type: cell-based; details: genotype 1a, no NS5B mutation
Protocol: as §2

[5] = tested on: HCV Genotype 1b, NS5B Mutation C316N; test: microbe, parasite or virus in culture; assay type: cell-based; details: genotype 1b, NS5B C316N
Protocol: as §2

[6] = tested on: HCV Genotype 1b, NS5B Mutation none; test: microbe, parasite or virus in culture; assay type: cell-based; details: genotype 1b, no NS5B mutation
Protocol: as §2

[7] = tested on: HCV Genotype 2a, NS5B Mutation none; test: microbe, parasite or virus in culture; assay type: cell-based; details: genotype 2a, no NS5B mutation
Protocol: as §2

[8] = tested on: HCV Genotype 2b, NS5B Mutation none; test: microbe, parasite or virus in culture; assay type: cell-based; details: genotype 2b, no NS5B mutation
Protocol: as §2

[9] = tested on: HCV Genotype 3a-1, NS5B Mutation none; test: microbe, parasite or virus in culture; assay type: cell-based; details: genotype 3a-1, no NS5B mutation
Protocol: as §2

[10] = tested on: HCV Genotype 3a-2, NS5B Mutation none; test: microbe, parasite or virus in culture; assay type: cell-based; details: genotype 3a-2, no NS5B mutation
Protocol: as §2

[11] = tested on: HCV Genotype 4a, NS5B Mutation none; test: microbe, parasite or virus in culture; assay type: cell-based; details: genotype 4a, no NS5B mutation
Protocol: as §2

[12] = tested on: HCV Genotype 4d, NS5B Mutation none; test: microbe, parasite or virus in culture; assay type: cell-based; details: genotype 4d, no NS5B mutation
Protocol: as §2

HCV S282T replicon = test: microbe, parasite or virus in culture; assay type: cell-based; details: NS5B Mutation S282T, transient assay, 96-hr
Protocol: (§3) A transient transfection assay was performed to determine the sensitivity of the […] of HCV to test compounds. Huh-7 cells were electroporated in the presence of RNA transcribed from wild type or S282T HCV replicon plasmids from the T7 promoter. The transfected cells were seeded in to 96-well plates at 7.5×10^3 cells per well in Dulbecco's Modified Eagle's medium. After 24 hr of incubation, medium was removed and replaced with fresh medium containing no or various concentrations of test compounds. Following an additional 96-hr incubation, the anti-HCV activity was measured by luciferase endpoint with Britelite™ Plus luminescence reporter gene kit (Perkin Elmer, Shelton, CT). Duplicate plates were treated and incubated in parallel for assessment of cellular toxicity by staining with the tetrazolium dye XTT.

HCV wild type replicon = test: microbe, parasite or virus in culture; assay type: cell-based; details: NS5B Mutation None, transient assay, 96-hr
Protocol: as §3

[13] = tested on: micro-patterned human hepatocyte co-cultures; test: Human Hepatocyte Co-Cultures (HepatoPac): cytotoxicity and hepatocyte health; assay type: cell-based
Protocol: Cytotoxicity and hepatocyte health were assessed in triplicate by measuring ALT leakage, urea production, albumin secretion and cellular ATP contents in micro-patterned human hepatocyte co-cultures (HepatoPac®, Hepregen Corporation) prepared by seeding cryopreserved human hepatocytes (single donor) and 3T3 J2 mouse fibroblasts in microtiter plates according to procedures established by Hepregen. Culture media was replaced with fresh media containing TA, test article, (0, 1, 10 or 30 μM) every 2 or 3 days through day 16. […] Cellular ATP levels were measured on days 9 and 21. ATP signals in stromal-only control cultures (murine 3T3 fibroblasts) were subtracted from those of human HepatoPac co-cultures to obtain hepatocyte-specific effects. See, Table 4, 5 and 6 below.

## sofosbuvir [reference compound]
[1]
  EC50: 53 nM
Huh-7 luc/neo ET cells
  TC50: greater than one hundred
[2]
  IC95 Value: 16950.9 nM
[2]; read-out: IC50 Value
  IC50: 1620 nM
[3]
  IC95 Value: 1067.5 nM
[3]; read-out: IC50 Value
  IC50: 115 nM
[4]
  IC95 Value: 507.7 nM
[4]; read-out: IC50 Value
  IC50: 62.7 nM
[5]
  IC95 Value: 472.8 nM
[5]; read-out: IC50 Value
  IC50: 73.9 nM
[6]
  Fold Change in IC50 from Sofosbuvir: 1.0
  IC95 Value: 642.2 nM
[6]; read-out: IC50 Value
  IC50: 86 nM
[7]
  IC95 Value: 195.1 nM
[7]; read-out: IC50 Value
  IC50: 22.5 nM
[8]
  IC95 Value: 295.3 nM
[8]; read-out: IC50 Value
  IC50: 44.8 nM
[9]
  IC95 Value: 689.8 nM
[9]; read-out: IC50 Value
  IC50: 126 nM
[10]
  IC95 Value: 808.1 nM
[10]; read-out: IC50 Value
  IC50: 124 nM
[11]
  IC95 Value: 681.4 nM
[11]; read-out: IC50 Value
  IC50: 74.9 nM
[12]
  IC95 Value: 1019.7 nM
[12]; read-out: IC50 Value
  IC50: 93.7 nM
HCV S282T replicon
  IC95 Value: >1000 nM
HCV S282T replicon; read-out: IC50 Value
  IC50: 278 nM
HCV wild type replicon
  IC95 Value: 218 nM
HCV wild type replicon; read-out: IC50 Value
  IC50: 36.4 nM
[13]; Day 9, read-out: Effect on Cellular ATP Concentrations, 50% Inhibitory Concentration (IC50)
  IC50: 8600 nM
[13]; Day 21, read-out: Effect on Cellular ATP Concentrations, 50% Inhibitory Concentration (IC50)
  IC50: 2300 nM
[13]; Table 5, Day 2, read-out: Effect on Albumin Secretion, 50% Inhibitory Concentration (IC50)
  IC50: > 30000 nM
[13]; Table 5, Day 5, read-out: Effect on Albumin Secretion, 50% Inhibitory Concentration (IC50)
  IC50: 19500 nM
[13]; Table 5, Day 7, read-out: Effect on Albumin Secretion, 50% Inhibitory Concentration (IC50)
  IC50: 10900 nM
[13]; Table 5, Day 9, read-out: Effect on Albumin Secretion, 50% Inhibitory Concentration (IC50)
  IC50: 9300 nM
[13]; Table 6, Day 2, read-out: Effect on Albumin Secretion, 50% Inhibitory Concentration (IC50)
  IC50: > 30000 nM
[13]; Table 6, Day 5, read-out: Effect on Albumin Secretion, 50% Inhibitory Concentration (IC50)
  IC50: > 30000 nM
[13]; Table 6, Day 7, read-out: Effect on Albumin Secretion, 50% Inhibitory Concentration (IC50)
  IC50: > 30000 nM
[13]; Table 6, Day 9, read-out: Effect on Albumin Secretion, 50% Inhibitory Concentration (IC50)
  IC50: 12100 nM
[13]; Table 6, Day 12, read-out: Effect on Albumin Secretion, 50% Inhibitory Concentration (IC50)
  IC50: 6800 nM
[13]; Table 6, Day 16, read-out: Effect on Albumin Secretion, 50% Inhibitory Concentration (IC50)
  IC50: 2700 nM
[13]; Table 6, Day 21, read-out: Effect on Albumin Secretion, 50% Inhibitory Concentration (IC50)
  IC50: 2300 nM
[13]; text b588
  cytotoxicity to human co-cultured hepatocytes (in words): more cytotoxicity than AT-511
